These results are taken from patent US6887202B2, “Systems and methods for monitoring health and delivering drugs transdermally” (Science Applications International Corporation, priority 2000, dated 2005).

Assay [1] deals with GABAA receptor. Particulars: read-out: Kd, Binding Assays; classical binding assays.
Assay [2] deals with GABAA receptor. As to the kind of experiment: Frontal chromatography on immobilized GABAA receptor (GR-IAM), [3H]-flunitrazepam marker. Type of assay: binding, rat. The procedure:
Supernatant is discarded.
All chromatographic experiments are performed at flow rate 0.4 ml/min at room temperature. […] The chromatographic data is summed up in 1-min intervals and smoothed using the Microsoft Excel program with a 10 point moving average.

Assay [3] addresses T1, α3/β4 nAChR (Rattus norvegicus, UniProt P04757+P12392).
T1 construct: expressed in transfected cells
Put plainly: Frontal chromatography with α3/β4 nAChR-IAM stationary phase ([3H]-EB marker). Type of assay: binding. How it is done:
Rat whole forebrain or transfected cells are suspended in 50 mM Tris-HCI, pH 7.4, (buffer A), homogenized for 30 seconds with Brinkmann Polytron, and centrifuged at 40,000×g for 10 min at 4° C. The pellet is resuspended in 6 ml of 2% deoxycholate or 2% cholate in buffer A and stirred for 2 hours. The mixture is centrifuged at 35,000×g for 30 minutes, and the supernatant containing nAChR-deoxycholate solution is collected.
Dried IAM particles are suspended in 4 ml of the obtained detergent solutions containing nAChR subunits or subtypes. For the immobilization of one nAChR subtype, the mixture of IAM-detergent-receptor is stirred for 1 hour at room temperature. The suspension is dialyzed against 2×1 L buffer A for 24 hours at 4° C. The IAM LC support with immobilized nAChRs is then washed with buffer A, centrifuged and the solid collected.
Chromatography based on nAChR-LAMcolumn or nAChR-liposome-Superdex 200 column: The nAChR-IAM particles or nAChR-Superdex gel beads are packed in a HR5/2 glass column and connected to a HPLC pump. […] All chromatographic experiments are performed at flow rate 0.4 ml/min at room temperature.
The chromatographic data is summed up in 1-min intervals and smoothed using the Microsoft Excel program with a 10 point moving average.

Assay [4] concerns the target T1, α3/β4 nAChR. As to the kind of experiment: Ligand binding assay using cell membrane homogenates.
The mark [5] stands for this setting: a3/(34-IAM stationary phase (0.5 × 1.3 cm)), read-out: Kd (frontal chromatography).

Where two headings read alike, the source gives them in different places.

T1 sequence (P04757 26-499): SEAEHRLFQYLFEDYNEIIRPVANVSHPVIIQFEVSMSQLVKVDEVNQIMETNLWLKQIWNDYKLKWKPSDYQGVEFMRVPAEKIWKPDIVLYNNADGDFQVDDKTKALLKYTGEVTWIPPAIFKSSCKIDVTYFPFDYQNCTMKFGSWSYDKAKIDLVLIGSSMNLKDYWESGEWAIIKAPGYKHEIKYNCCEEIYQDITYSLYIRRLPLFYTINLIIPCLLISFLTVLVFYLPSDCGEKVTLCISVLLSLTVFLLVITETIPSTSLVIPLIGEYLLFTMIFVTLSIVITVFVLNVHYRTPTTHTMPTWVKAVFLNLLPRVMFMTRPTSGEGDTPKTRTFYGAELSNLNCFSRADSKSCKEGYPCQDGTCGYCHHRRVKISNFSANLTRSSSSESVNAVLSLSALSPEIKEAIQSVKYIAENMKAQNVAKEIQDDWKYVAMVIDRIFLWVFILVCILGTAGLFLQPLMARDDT
T1 sequence (P12392 21-495): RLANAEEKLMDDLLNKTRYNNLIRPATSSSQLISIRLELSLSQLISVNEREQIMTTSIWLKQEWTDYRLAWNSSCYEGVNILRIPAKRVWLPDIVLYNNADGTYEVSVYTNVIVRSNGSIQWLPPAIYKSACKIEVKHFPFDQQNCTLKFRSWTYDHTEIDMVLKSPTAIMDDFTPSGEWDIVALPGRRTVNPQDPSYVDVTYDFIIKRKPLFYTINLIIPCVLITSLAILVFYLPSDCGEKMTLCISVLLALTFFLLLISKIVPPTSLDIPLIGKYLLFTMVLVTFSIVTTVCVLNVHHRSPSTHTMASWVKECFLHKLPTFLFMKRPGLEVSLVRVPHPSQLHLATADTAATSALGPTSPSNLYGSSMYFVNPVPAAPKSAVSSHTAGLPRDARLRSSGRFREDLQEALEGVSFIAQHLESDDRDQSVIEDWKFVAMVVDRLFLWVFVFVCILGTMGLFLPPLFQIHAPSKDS

Broadly, the Kd is a measure of binding affinity in units of concentration. Turning to `CN1C(=O)CN=C(c2ccccc2)c2cc(Cl)ccc21` [Diazepam], the Kd was found to be 1.3 nM at GABAA receptor [1] and 1 nM on GABAA receptor [2].
Turning to `CN1CCCC1c1cccnc1` (single isomer, unassigned; (-)) [(−)-Nicotine], on α3/β4 nAChR [3], the “mobile phase concentration required to decrease the retention volume of 60 pM [3H]-EB from 9.5 ml to 6 ml” value came out at 45 nM.
Regarding `CN1[C@@H]2CC[C@H]1C[C@@H](OC(=O)C(CO)c1ccccc1)C2` (stereo partly shown) [Atropine], the Kd at α3/β4 nAChR [3] was 14600 nM.
Regarding `c1cncc(OC[C@@H]2CCN2)c1` [A85380], the Kd on α3/β4 nAChR [4] worked out at 73.6 ± 6.3 nM; at α3/β4 nAChR [3] (setting [5]), 17.2 ± 0.5 nM. Also, the “mobile phase concentration required to decrease the retention volume of 60 pM [3H]-EB from 9.5 ml to 6 ml” value on α3/β4 nAChR [3] (α3/β4 nAChR column (0.5×1.25 cm)) was 1.7 nM.
Take `C[N+](C)(C)CCOC(N)=O` [Carbachol]: the Kd turned out to be 3840 nM on α3/β4 nAChR [4] and 1280 nM at α3/β4 nAChR [3] (setting [5]). Moreover, the “mobile phase concentration required to decrease the retention volume of 60 pM [3H]-EB from 9.5 ml to 6 ml” value at α3/β4 nAChR [3] was 1,200 nM.
